Experimental findings from patent US12187713B2, “Immunomodulators, compositions and methods thereof” (Betta Pharmaceuticals Co., Ltd, priority 2019, dated 2025) are described below.

The target in the first assay is PD-1/PD-L1 (Homo sapiens (Human), UniProt Q9NZQ7). The experiment in a line: PD-1/PD-L1 Binding Assay (Alphascreen). The following applies: numeric values. The method, boiled down: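 PD-1/PD-L1 binding detected by anti-6×His acceptor and streptavidin donor beads after 120 min in the dark at 25 °C. Beforehand, the two proteins were incubated 15 min at 25 °C with inhibitor at 0.015–300 nM (1% DMSO). IC50 comes from a log concentration–response curve.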
Sequence of PD-1/PD-L1 (Q9NZQ7 19-238): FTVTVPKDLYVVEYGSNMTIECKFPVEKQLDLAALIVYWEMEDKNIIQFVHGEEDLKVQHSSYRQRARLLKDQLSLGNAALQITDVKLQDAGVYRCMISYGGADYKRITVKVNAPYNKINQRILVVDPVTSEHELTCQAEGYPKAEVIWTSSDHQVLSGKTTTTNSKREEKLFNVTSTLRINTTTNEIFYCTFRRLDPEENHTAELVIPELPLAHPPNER
Take `Cc1c(-c2nc3cc(CN[C@H]4CCC[C@H]4O)c(OC(F)F)cc3o2)cccc1-c1cccc(-c2nc3cc(CN4CCC[C@H]4C(=O)O)c(OC(F)F)cc3o2)c1C` [Example 27, ((6-(difluoromethoxy)-2-(3′-(6-(difluoromethoxy)-5-((((1S,2R)-2-hydroxycyclopentyl)amino)methyl)benzo[d]oxazol-2-yl)-2,2′-dimethyl-[1,1′-biphenyl]-3-yl)benzo[d]oxazol-5-yl)methyl)-L-proline]: the IC50 is 0.66 nM. On the same count and under the same terms, with `Cc1c(-c2nc3cc(CN4CCC[C@H]4C(=O)O)c(OC(F)F)cc3o2)cccc1-c1cccc(N2CCC(N3CCCC3)CC2)c1C` [Example 306, ((6-(difluoromethoxy)-2-(2,2′-dimethyl-3′-(4-(pyrrolidin-1-yl)piperidin-1-yl)-[1,1′-biphenyl]-3-yl)benzo[d]oxazol-5-yl)methyl)-L-proline] the figure was 1.5 nM. Consider `Cc1c(-c2nc3cc(CN4CCC[C@@H]4C(=O)O)c(OC(F)F)cc3o2)cccc1-c1cccc(-c2nc3cc(CN4CC[C@@H](C)C4)cc(C#N)c3o2)c1C` [Example 132, ((2-(3′-(7-cyano-5-(((R)-3-methylpyrrolidin-1-yl)methyl)benzo[d]oxazol-2-yl)-2,2′-dimethyl-[1,1′-biphenyl]-3-yl)-6-(difluoromethoxy)benzo[d]oxazol-5-yl)methyl)-D-proline], for which the IC50 amounted to 2 nM. Same read-out and setting: with `Cc1cc(-c2cccc(-c3cccc(-c4nc5cc(CN6CCC[C@H]6C(=O)O)c(OC(F)F)cc5o4)c3C)c2C)cc(C)c1CN1CCCC1` [Example 234, ((6-(difluoromethoxy)-2-(2,2′,3″,5″-tetramethyl-4″-(pyrrolidin-1-ylmethyl)-[1,1′:3′,1″- terphenyl]-3-yl)benzo[d]oxazol-5-yl)methyl)-L-proline] the figure was 0.52 nM.

Still in this assay, the particulars now being: range symbols.
`Cc1c(-c2nc3cc(CN4CC(S(C)(=O)=O)C4)c(OC(F)F)cc3o2)cccc1-c1cccc(-c2nc3cc(CN4CCC[C@H]4C(=O)O)c(OC(F)F)cc3o2)c1C` [Example 41, ((6-(difluoromethoxy)-2-(3′-(6-(difluoromethoxy)-5-((3-(methylsulfonyl)azetidin-1-yl)methyl)benzo[d]oxazol-2-yl)-2,2′-dimethyl-[1,1′-biphenyl]-3-yl)benzo[d]oxazol-5-yl)methyl)-L-proline]: the IC50 fell in the range of 5 to 50 nM.

With `Cc1c(-c2ccc(CN3CCCC3)c(=O)[nH]2)cccc1-c1cccc(-c2nc3cc(CN4CCC[C@H]4C(=O)O)c(OC(F)F)cc3o2)c1C` [Example 267, ((6-(difluoromethoxy)-2-(2,2′-dimethyl-3′-(6-oxo-5-(pyrrolidin-1-ylmethyl)-1,6-dihydropyridin-2-yl)-[1,1′-biphenyl]-3-yl)benzo[d]oxazol-5-yl)methyl)-L-proline], the IC50 is 5 to 50 nM. Still for that read-out and setting: with `Cc1c(-c2nc3cc(CN4CCC[C@H]4C(=O)O)c(OC(F)F)cc3o2)cccc1-c1cccc(-c2nc3cc(CN4CCC(C)(F)C4)cc(C#N)c3o2)c1C` (stereo partly drawn) [Example 167, ((2-(3′-(7-cyano-5-((3-fluoro-3-methylpyrrolidin-1-yl)methyl)benzo[d]oxazol-2-yl)-2,2′-dimethyl-[1,1′-biphenyl]-3-yl)-6-(difluoromethoxy)benzo[d]oxazol-5-yl)methyl)-L-proline] the figure was 5 to 50 nM; with `Cc1c(-c2nc3cc(CN4CC(=CC#N)C4)c(OC(F)F)cc3o2)cccc1-c1cccc(-c2nc3cc(CN4CCC[C@H]4C(=O)O)c(OC(F)F)cc3o2)c1C` [Example 82, ((2-(3′-(5-((3-(cyanomethylene)azetidin-1-yl)methyl)-6-(difluoromethoxy)benzo[d]oxazol-2-yl)-2,2′-dimethyl-[1,1′-biphenyl]-3-yl)-6-(difluoromethoxy)benzo[d]oxazol-5-yl)methyl)-L-proline], 0.1 to 5 nM.

The term IC50 denotes the concentration that inhibits the measured activity by half. Read a low IC50 as higher potency.
